Data: ChEMBL document CHEMBL5143593 (Eur J Med Chem, 2022)
One block for each molecule: values may come before it. The source made the active and inactive calls. The calls are words filed in the database; no cut-off is given here.

What was measured:
[1] = Cytotoxicity against CHO-K1 cells measured after 24 hrs by MTT assay; type: toxicity, cell-based, Cricetulus griseus; details: Chinese hamster
[2] = Permeability of compound at pH 7.4 by PAMPA assay
[3] = target: 5-hydroxytryptamine receptor 2A (Homo sapiens, UniProt P28223); experiment: Displacement of [3H]-ketanserin from human 5-HT2A receptor expressed in CHO-K1 cells measured after 1.5 hrs by Microbeta plate reader method; type: cell-based
Sequence of 5-hydroxytryptamine receptor 2A (P28223 whole entry): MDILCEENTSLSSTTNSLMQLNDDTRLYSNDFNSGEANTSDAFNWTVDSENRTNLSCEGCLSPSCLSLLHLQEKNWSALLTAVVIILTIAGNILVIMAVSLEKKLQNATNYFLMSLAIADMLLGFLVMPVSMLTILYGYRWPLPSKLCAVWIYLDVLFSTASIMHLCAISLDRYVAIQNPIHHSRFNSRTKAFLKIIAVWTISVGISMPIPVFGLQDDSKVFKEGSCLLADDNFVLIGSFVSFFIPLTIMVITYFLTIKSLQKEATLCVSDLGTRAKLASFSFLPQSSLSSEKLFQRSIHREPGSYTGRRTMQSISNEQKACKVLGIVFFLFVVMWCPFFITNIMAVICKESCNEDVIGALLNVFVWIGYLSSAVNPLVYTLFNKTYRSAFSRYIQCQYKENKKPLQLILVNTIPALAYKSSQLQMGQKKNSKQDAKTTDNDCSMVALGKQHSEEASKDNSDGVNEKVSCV

D(2) dopamine receptor = D(2) dopamine receptor (Homo sapiens, UniProt P14416); experiment: Displacement of [3H]-raclopride from human D2L receptor expressed in HEK293 cells measured after 1 hr by Microbeta plate reader method; type: cell-based
Sequence of D(2) dopamine receptor (P14416 whole entry): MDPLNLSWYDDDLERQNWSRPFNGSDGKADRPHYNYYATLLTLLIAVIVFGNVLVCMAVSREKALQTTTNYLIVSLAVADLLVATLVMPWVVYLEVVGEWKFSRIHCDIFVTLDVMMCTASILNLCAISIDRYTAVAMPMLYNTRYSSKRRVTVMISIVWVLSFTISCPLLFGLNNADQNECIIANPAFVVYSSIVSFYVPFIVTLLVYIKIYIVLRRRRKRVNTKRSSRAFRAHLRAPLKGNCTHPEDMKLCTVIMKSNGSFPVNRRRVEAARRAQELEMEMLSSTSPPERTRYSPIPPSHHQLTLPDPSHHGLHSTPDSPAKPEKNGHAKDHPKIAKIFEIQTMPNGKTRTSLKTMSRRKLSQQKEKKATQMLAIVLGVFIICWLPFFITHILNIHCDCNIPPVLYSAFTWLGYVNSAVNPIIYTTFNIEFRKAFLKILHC

Rattus norvegicus [4] = experiment: Antipsychotic activity in male Wistar rat assessed as inhibition of amphetamine-stimulated locomotor activity at 1 mg/kg, ip; type: functional, organism-based
[5] = Cytotoxicity against HEK293 cells measured after 24 hrs by MTT assay; type: toxicity, cell-based; details: human
[6] = target: T1, 5-hydroxytryptamine receptor 3A (Cavia porcellus, UniProt O70212); experiment: Antagonist activity at 5-HT3 receptor in guinea-pig ileum assessed as inhibition of 5HT-induced contraction; type: tissue-based
T1 sequence (O70212 whole entry): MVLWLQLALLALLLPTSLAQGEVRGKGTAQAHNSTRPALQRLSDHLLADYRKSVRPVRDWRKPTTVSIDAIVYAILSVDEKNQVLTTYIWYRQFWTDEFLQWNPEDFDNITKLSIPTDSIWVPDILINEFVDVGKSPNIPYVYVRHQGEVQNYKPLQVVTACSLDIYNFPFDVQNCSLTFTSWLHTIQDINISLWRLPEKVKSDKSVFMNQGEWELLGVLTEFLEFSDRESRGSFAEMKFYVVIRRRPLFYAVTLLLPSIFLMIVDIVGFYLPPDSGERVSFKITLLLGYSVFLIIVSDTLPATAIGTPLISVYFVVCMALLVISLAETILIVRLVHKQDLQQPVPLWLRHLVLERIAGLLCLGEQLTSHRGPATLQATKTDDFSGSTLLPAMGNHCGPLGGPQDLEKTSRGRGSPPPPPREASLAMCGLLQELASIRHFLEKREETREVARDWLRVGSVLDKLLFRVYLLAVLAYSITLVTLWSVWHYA

Rattus norvegicus [7] = experiment: Antipsychotic activity in male Wistar rat assessed as restoration of prepulse inhibition of acoustic startle response at 1 mg/kg, ip; type: functional, organism-based
[8] = target: T2, 5-hydroxytryptamine receptor 3A (Homo sapiens) (UniProt P46098); experiment: Competitive binding affinity towards 5-HT3 receptor (unknown origin); details: filed as antagonist
T2 sequence (whole entry): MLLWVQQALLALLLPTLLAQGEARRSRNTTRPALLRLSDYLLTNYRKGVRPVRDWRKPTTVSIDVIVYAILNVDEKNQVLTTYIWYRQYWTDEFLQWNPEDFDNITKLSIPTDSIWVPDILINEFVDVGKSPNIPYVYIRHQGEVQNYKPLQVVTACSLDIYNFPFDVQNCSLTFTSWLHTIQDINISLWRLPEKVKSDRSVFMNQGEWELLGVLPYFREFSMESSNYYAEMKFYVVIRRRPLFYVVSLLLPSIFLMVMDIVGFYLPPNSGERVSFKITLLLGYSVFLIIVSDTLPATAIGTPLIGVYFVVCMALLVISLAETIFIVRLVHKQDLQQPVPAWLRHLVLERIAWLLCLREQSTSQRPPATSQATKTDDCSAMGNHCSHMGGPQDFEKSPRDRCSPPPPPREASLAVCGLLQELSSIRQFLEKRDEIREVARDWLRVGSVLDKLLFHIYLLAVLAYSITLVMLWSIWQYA

[9] = AUC in male Wistar rat plasma at 20 mg/kg, ip; type: ADME, organism-based; parameters: dose 20 mg/kg, route ip; details: in vivo
[10] = Half-life in male Wistar rat brain at 20 mg/kg, ip; type: ADME, organism-based
[11] = target: 5-hydroxytryptamine receptor 7 (Homo sapiens, UniProt P34969); experiment: Displacement of [3H]-5-CT from human 5-HT7b receptor expressed in HEK293 cells measured after 1 hr by Microbeta plate reader method; type: cell-based
Sequence of 5-hydroxytryptamine receptor 7 (P34969 whole entry): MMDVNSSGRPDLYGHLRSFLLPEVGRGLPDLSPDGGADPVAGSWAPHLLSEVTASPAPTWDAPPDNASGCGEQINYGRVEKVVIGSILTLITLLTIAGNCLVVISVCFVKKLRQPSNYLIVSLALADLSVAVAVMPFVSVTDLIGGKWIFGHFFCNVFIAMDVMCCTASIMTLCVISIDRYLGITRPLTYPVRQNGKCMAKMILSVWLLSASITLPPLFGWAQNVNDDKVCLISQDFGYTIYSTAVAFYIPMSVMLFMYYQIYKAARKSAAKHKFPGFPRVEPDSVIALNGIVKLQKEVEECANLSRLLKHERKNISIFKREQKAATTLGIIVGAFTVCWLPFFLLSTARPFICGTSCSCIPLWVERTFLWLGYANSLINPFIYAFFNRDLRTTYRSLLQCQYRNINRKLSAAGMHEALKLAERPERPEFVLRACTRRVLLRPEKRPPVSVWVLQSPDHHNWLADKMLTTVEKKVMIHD

[12] = Toxicity in male Wistar rat assessed as abnormalities in kidney at 20 mg/kg, ip; type: organism-based; details: in vivo
[13] = Toxicity in male Wistar rat assessed as maximum tolerated dose administered intraperitoneally; details: in vivo, route ip
[14] = Cmax in male Wistar rat brain at 20 mg/kg, ip; type: ADME, organism-based; parameters: dose 20 mg/kg, route ip
[15] = Toxicity in male Wistar rat assessed as abnormalities (breathing changes, low activity, abdominal pain during manipulation, narrowed eyes and provoked vocalization) at 27.8 mg/kg, ip; type: organism-based; details: in vivo
[16] = Tmax in male Wistar rat brain at 20 mg/kg, ip; type: ADME, organism-based
[17] = Tmax in male Wistar rat plasma at 20 mg/kg, ip; type: ADME, organism-based
[18] = Toxicity in male Wistar rat assessed as abnormalities in blood plasma at 20 mg/kg, ip; type: organism-based; details: in vivo
[19] = Toxicity in male Wistar rat assessed as abnormalities (low activity and narrowed eyes) at 27.8 mg/kg, ip measured after 24 hrs; type: organism-based; details: in vivo
[20] = Toxicity in male Wistar rat assessed as abnormalities (breathing changes, low activity and narrowed eyes) at 20 mg/kg, ip measured after 4 hrs; type: organism-based; details: in vivo
[21] = MRT in male Wistar rat brain at 20 mg/kg, ip; type: ADME, organism-based
[22] = MRT in male Wistar rat plasma at 20 mg/kg, ip; type: ADME, organism-based
[23] = Toxicity in male Wistar rat assessed as abnormalities in liver at 20 mg/kg, ip; type: organism-based; details: in vivo
[24] = target: T3, 5-hydroxytryptamine receptor 1A (Homo sapiens, UniProt P08908); experiment: Displacement of [3H]-8-OH-DPAT from human 5-HT1A receptor expressed in HEK293 cells measured after 1 hr by Microbeta plate reader method; type: cell-based
T3 sequence (P08908 whole entry): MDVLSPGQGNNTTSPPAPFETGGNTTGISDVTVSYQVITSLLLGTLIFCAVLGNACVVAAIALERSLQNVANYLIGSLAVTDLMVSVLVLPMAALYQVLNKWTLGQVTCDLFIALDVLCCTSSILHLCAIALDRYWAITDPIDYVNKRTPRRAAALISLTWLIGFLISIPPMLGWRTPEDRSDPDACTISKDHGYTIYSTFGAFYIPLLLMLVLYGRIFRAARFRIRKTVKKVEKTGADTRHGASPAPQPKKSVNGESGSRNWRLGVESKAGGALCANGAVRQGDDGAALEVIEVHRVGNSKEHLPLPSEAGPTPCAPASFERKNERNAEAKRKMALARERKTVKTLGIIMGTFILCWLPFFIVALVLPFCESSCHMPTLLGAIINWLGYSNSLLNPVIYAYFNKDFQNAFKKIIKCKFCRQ

[25] = AUC in male Wistar rat brain at 20 mg/kg, ip; type: ADME, organism-based; parameters: dose 20 mg/kg, route ip; details: in vivo
[26] = Cmax in male Wistar rat plasma at 20 mg/kg, ip; type: ADME, organism-based; parameters: dose 20 mg/kg, route ip
[27] = Half-life in male Wistar rat plasma at 20 mg/kg, ip; type: ADME, organism-based
[28] = Toxicity in male Wistar rat assessed as abnormalities in liver at 2 mg/kg, ip; type: organism-based; details: in vivo
[29] = Toxicity in male Wistar rat assessed as abnormalities in kidney at 2 mg/kg, ip; type: organism-based; details: in vivo
[30] = MRT in male Wistar rat brain at 2 mg/kg, ip; type: ADME, organism-based
[31] = MRT in male Wistar rat plasma at 2 mg/kg, ip; type: ADME, organism-based
[32] = Toxicity in male Wistar rat assessed as effect on AST level at 2 mg/kg, ip; type: organism-based; details: in vivo
[33] = Toxicity in male Wistar rat assessed as effect on creatine kinase level in plasma at 2 mg/kg, ip; type: organism-based; details: in vivo
[34] = Cmax in male Wistar rat plasma at 2 mg/kg, ip; type: ADME, organism-based; parameters: dose 2 mg/kg, route ip
[35] = AUC in male Wistar rat brain at 2 mg/kg, ip; type: ADME, organism-based; parameters: dose 2 mg/kg, route ip; details: in vivo
[36] = Half-life in male Wistar rat plasma at 2 mg/kg, ip; type: ADME, organism-based
[37] = Cmax in male Wistar rat brain at 2 mg/kg, ip; type: ADME, organism-based; parameters: dose 2 mg/kg, route ip
[38] = Tmax in male Wistar rat brain at 2 mg/kg, ip; type: ADME, organism-based
[39] = Tmax in male Wistar rat plasma at 2 mg/kg, ip; type: ADME, organism-based
[40] = Toxicity in male Wistar rat assessed as adverse effects at 2 mg/kg, ip; type: organism-based; details: in vivo
[41] = AUC in male Wistar rat plasma at 2 mg/kg, ip; type: ADME, organism-based; parameters: dose 2 mg/kg, route ip; details: in vivo
[42] = Half-life in male Wistar rat brain at 2 mg/kg, ip; type: ADME, organism-based
[43] = Toxicity in male Wistar rat assessed as effect on ALT level at 2 mg/kg, ip; type: organism-based; details: in vivo

SMILES: COc1ccccc1N1CCN(CCCNC(=O)c2cnccn2)CC1
IC50 at 24 h [1]: > 500 µM
Papp [2]: 25 ×10⁻⁶ cm/s
Ki [3]: 35.8 µM
Ki (D(2) dopamine receptor): 0.86 µM

IC50 [6]: 630 µM
SMILES: O=C1CCc2ccc(OCCCCN3CCN(c4cccc(Cl)c4Cl)CC3)cc2N1 [ARIPIPRAZOLE]
Activity (Rattus norvegicus [4]): Active
IC50 at 24 h [5]: > 100 µM
Activity (Rattus norvegicus [7]): Active

SMILES: O=C(c1ccccc1)N1CCN(CCCN2CCN(c3ccccc3)CC2)CC1
IC50 at 24 h [1]: 1300 µM
Papp [2]: 20 ×10⁻⁶ cm/s
Ki [3]: 6.5 µM
Ki (D(2) dopamine receptor): 2.1 µM

SMILES: N#Cc1cccnc1N1CCN(CCCOc2ccc3c(c2)NC(=O)CC3)CC1
IC50 at 24 h [1]: 350 µM
Papp [2]: 14 ×10⁻⁶ cm/s
pKb [8]: 5
Ki [3]: 5.3 µM
Ki (D(2) dopamine receptor): 0.081 µM

SMILES: COc1ccccc1N1CCN(CCCN2CCN(c3ncccc3C#N)CC2)CC1
Papp [2]: 20 ×10⁻⁶ cm/s
AUC [9]: 91958.8 nmol·min/L
half-life [10]: 26.7 min
Ki [11]: 2.7 µM
Activity [12]: Non-Toxic
MTD [13]: 2.78 mg/kg
Cmax [14]: 3520 nM
Activity [15]: Toxic
Tmax [16]: 5 min
Tmax [17]: 5 min
Activity [18]: Non-Toxic
Activity [19]: Toxic
Activity [20]: Toxic
MRT [21]: 57.8 min
MRT [22]: 61.4 min
Activity [23]: Non-Toxic
Ki [24]: 0.018 µM
AUC [25]: 272930.4 nmol·min/L
Ki [3]: 23 µM
Cmax [26]: 3210 nM
half-life [27]: 48.8 min

Papp [2]: 14 ×10⁻⁶ cm/s
IC50 [6]: > 10 µM
Ki (D(2) dopamine receptor): 0.13 µM
SMILES: COc1ccccc1N1CCN(CCN2CCN(c3ncccc3C#N)CC2)CC1
IC50 at 24 h [1]: 780 µM

Papp [2]: 8.7 ×10⁻⁶ cm/s
Ki (D(2) dopamine receptor): 0.59 µM
SMILES: COc1ccccc1N1CCN(CCCN2CCN(C(=O)c3ccccn3)CC2)CC1
IC50 at 24 h [1]: 1900 µM

SMILES: COc1ccccc1N1CCN(CCCN2CCN(C(=O)c3ccccc3)CC2)CC1
IC50 at 24 h [1]: 1300 µM
Papp [2]: 11 ×10⁻⁶ cm/s
Ki [3]: 30 µM
Ki (D(2) dopamine receptor): 0.26 µM

SMILES: N#Cc1cccnc1N1CCN(CCCN2CCN(c3ccccc3)CC2)CC1
IC50 at 24 h [1]: 770 µM
Papp [2]: 25 ×10⁻⁶ cm/s
IC50 [6]: > 3 µM
Ki [3]: 13 µM
Ki (D(2) dopamine receptor): 0.77 µM

Papp [2]: 0.3 ×10⁻⁶ cm/s
SMILES: NS(=O)(=O)c1cc2c(cc1Cl)N=CNS2(=O)=O [CHLOROTHIAZIDE]

SMILES: O=C(c1ccccn1)N1CCN(CCCN2CCN(c3cccc(Cl)c3Cl)CC2)CC1
IC50 at 24 h [1]: 290 µM
Papp [2]: 17 ×10⁻⁶ cm/s
pKb [8]: 5.3
Ki [3]: 2.3 µM
Ki (D(2) dopamine receptor): 0.082 µM

SMILES: N#Cc1cccnc1N1CCN(CCCN2CCN(c3cccc(Cl)c3Cl)CC2)CC1
Activity [28]: Non-Toxic
Papp [2]: 5.9 ×10⁻⁶ cm/s
Activity [29]: Non-Toxic
MRT [30]: 459 min
MRT [31]: 228 min
Activity [32]: Non-Toxic
Activity [33]: Non-Toxic
Cmax [34]: 97.9 nM
AUC [35]: 88483.21 nmol·min/L
Ki [11]: 0.57 µM
MTD [13]: 0.2 mg/kg
half-life [36]: 100 min
Cmax [37]: 266 nM
Tmax [38]: 60 min
Tmax [39]: 3 min
Activity [40]: Non-Toxic
AUC [41]: 10886.71 nmol·min/L
Ki [24]: 0.019 µM
half-life [42]: 263 min
IC50 [6]: 0.3 µM
Ki [3]: 0.47 µM
Activity [43]: Non-Toxic
